Paper PMC12935787, “Clinical pharmacokinetics and pharmacometabolomics of Andrographis paniculata capsules: Bridging drug disposition and metabolic response to precision medicine” (Naunyn-Schmiedeberg's Archives of Pharmacology, 2025)
Where two headings read alike, the source gives them in different places.

What was measured:
[1] = Clinical pharmacokinetics, plasma LC-MS/MS after single oral dose of AP capsules; format: in vivo, human (healthy volunteers); details: human, plasma; for concentration at 0 h / concentration at 0.5 h / concentration at 1 h / concentration at 1.5 h / concentration at 2 h / concentration at 2.5 h / concentration at 3 h / concentration at 3.5 h / concentration at 4 h / concentration at 5 h / concentration at 6 h / concentration at 8 h / concentration at 10 h / concentration at 12 h / concentration at 24 h: oral, 2000 mg, 2000 mg AP capsules; for concentration at 0.5 h: 0.50 h; for concentration at 1.5 h: 1.50 h; for concentration at 2.5 h: 2.50 h; for concentration at 3.5 h: 3.50 h
Method: The protocol was published (Tee et al. [2022]).
Seven calibrators ranging from 1, 2, 5,10, 20, 50, and 100 ng mL^−1 were prepared. Frozen plasma was thawed, vortexed-mixes, and processed via protein precipitation: 50 µL plasma plus 100 µL 0.01% ammonia in methanol were vortexed (20 s), centrifuged (14800 rpm, 5 min) and […] supernatant was transferred to 2 mL vials with inserts. LC–MS/MS injection volume: 10 µL. The separation used a Phenomenex Gemini-NX C18 column (150 × 2.1 mm, 5 μm) with 0.01% ammonia (A) and acetonitrile/methanol (1:1, B) as mobile phases (0.30 mL min^-1). The gradient program: 40% B (0 min), linear increase to 95% B (3 min), hold to 5 min, sharp decrease to 10% B (5.01 min), hold to 7 min, return to 40% B (7.01 min), and re-equilibration to 10 min. Mass detection employed an LCMS-8060NX triple quadrupole with heated ESI in negative mode, monitoring specific MRM transitions: andrographolide (349.3 → 331.2/287.1), 14-deoxyandrographolide (331.2 → 108.0/301.1), and neoandrographolide (479.1 → 317.4/161.1).
Pharmacokinetic parameters were determined from plasma samples (5 subjects, 15 time points) analyzed via LC–MS/MS (Shimadzu 8060NX). […] Specific MRM transitions for andrographolide, 14-deoxyandrographolide, and neoandrographolide in plasma samples of subjects are illustrated in Figure S3. […] The dose-dependent concentration–time curves, pharmacokinetics profiles (Fig. 2a, b and c) and comprehensive individual PK data (Table S4) provide a foundation for developing personalized AP dosing regimens, supporting its precision medicine potential.

[2] = design: method as in Songvut et al. [2023b]; details: AP dose corresponding to 60 mg of andrographolide; ref Songvut et al. [2023b]; cited from earlier work
[3] = S1, read-out: Plasma concentration
[4] = S2, read-out: Plasma concentration
[5] = S3, read-out: Plasma concentration
[6] = S4, read-out: Plasma concentration
[7] = S5, read-out: Plasma concentration
[8] = mean n=5, read-out: Mean concentration
[9] = 2000 mg AP capsules oral, fasting, n=5

C=C1CC[C@@H]2[C@](C)(CO)[C@H](O)CC[C@@]2(C)[C@@H]1CCC1=CCOC1=O [14-deoxyandrographolide]
concentration at 0 h [1, 3]: 0 ng/mL
concentration at 0.5 h [1, 3]: 4.67 ng/mL
concentration at 1 h [1, 3]: 2.88 ng/mL
concentration at 1.5 h [1, 3]: 7.71 ng/mL
concentration at 2 h [1, 3]: 5.18 ng/mL
concentration at 2.5 h [1, 3]: 3.32 ng/mL
concentration at 3 h [1, 3]: 6.06 ng/mL
concentration at 3.5 h [1, 3]: 3.78 ng/mL
concentration at 4 h [1, 3]: 0 ng/mL
concentration at 5 h [1, 3]: 0 ng/mL
concentration at 6 h [1, 3]: 0 ng/mL
concentration at 8 h [1, 3]: 0 ng/mL
concentration at 10 h [1, 3]: 0 ng/mL
concentration at 12 h [1, 3]: 0 ng/mL
concentration at 24 h [1, 3]: 0 ng/mL
concentration at 0 h [1, 4]: 0 ng/mL
concentration at 0.5 h [1, 4]: 0 ng/mL
concentration at 1 h [1, 4]: 4.36 ng/mL
concentration at 1.5 h [1, 4]: 4.51 ng/mL
concentration at 2 h [1, 4]: 3.4 ng/mL
concentration at 2.5 h [1, 4]: 2.73 ng/mL
concentration at 3 h [1, 4]: 4.33 ng/mL
concentration at 3.5 h [1, 4]: 0 ng/mL
concentration at 4 h [1, 4]: 0 ng/mL
concentration at 5 h [1, 4]: 0 ng/mL
concentration at 6 h [1, 4]: 0 ng/mL
concentration at 8 h [1, 4]: 0 ng/mL
concentration at 10 h [1, 4]: 0 ng/mL
concentration at 12 h [1, 4]: 0 ng/mL
concentration at 24 h [1, 4]: 0 ng/mL
concentration at 0 h [1, 5]: 0 ng/mL
concentration at 0.5 h [1, 5]: 23.4 ng/mL
concentration at 1 h [1, 5]: 10.1 ng/mL
concentration at 1.5 h [1, 5]: 6.33 ng/mL
concentration at 2 h [1, 5]: 3.06 ng/mL
concentration at 2.5 h [1, 5]: 2.52 ng/mL
concentration at 3 h [1, 5]: 1.77 ng/mL
concentration at 3.5 h [1, 5]: 0 ng/mL
concentration at 4 h [1, 5]: 0 ng/mL
concentration at 5 h [1, 5]: 2.59 ng/mL
concentration at 6 h [1, 5]: 0 ng/mL
concentration at 8 h [1, 5]: 0 ng/mL
concentration at 10 h [1, 5]: 0 ng/mL
concentration at 12 h [1, 5]: 0 ng/mL
concentration at 24 h [1, 5]: 0 ng/mL
concentration at 0 h [1, 6]: 0 ng/mL
concentration at 0.5 h [1, 6]: 1.49 ng/mL
concentration at 1 h [1, 6]: 10 ng/mL
concentration at 1.5 h [1, 6]: 13.2 ng/mL
concentration at 2 h [1, 6]: 4.7 ng/mL
concentration at 2.5 h [1, 6]: 5.46 ng/mL
concentration at 3 h [1, 6]: 1.92 ng/mL
concentration at 3.5 h [1, 6]: 2.29 ng/mL
concentration at 4 h [1, 6]: 1.69 ng/mL
concentration at 5 h [1, 6]: 1.8 ng/mL
concentration at 6 h [1, 6]: 2.01 ng/mL
concentration at 8 h [1, 6]: 2.47 ng/mL
concentration at 10 h [1, 6]: 0 ng/mL
concentration at 12 h [1, 6]: 0 ng/mL
concentration at 24 h [1, 6]: 0 ng/mL
concentration at 0 h [1, 7]: 0 ng/mL
concentration at 0.5 h [1, 7]: 3.04 ng/mL
concentration at 1 h [1, 7]: 2.29 ng/mL
concentration at 1.5 h [1, 7]: 3.39 ng/mL
concentration at 2 h [1, 7]: 4.99 ng/mL
concentration at 2.5 h [1, 7]: 3.66 ng/mL
concentration at 3 h [1, 7]: 3.28 ng/mL
concentration at 3.5 h [1, 7]: 2.09 ng/mL
concentration at 4 h [1, 7]: 1.36 ng/mL
concentration at 5 h [1, 7]: 2.4 ng/mL
concentration at 6 h [1, 7]: 1.7 ng/mL
concentration at 8 h [1, 7]: 0 ng/mL
concentration at 10 h [1, 7]: 0 ng/mL
concentration at 12 h [1, 7]: 0 ng/mL
concentration at 24 h [1, 7]: 0 ng/mL
concentration at 0 h [1, 8]: 0 ng/mL
concentration at 0.5 h [1, 8]: 6.52 ng/mL
concentration at 1 h [1, 8]: 5.94 ng/mL
concentration at 1.5 h [1, 8]: 7.02 ng/mL
concentration at 2 h [1, 8]: 4.27 ng/mL
concentration at 2.5 h [1, 8]: 3.54 ng/mL
concentration at 3 h [1, 8]: 3.47 ng/mL
concentration at 3.5 h [1, 8]: 1.63 ng/mL
concentration at 4 h [1, 8]: 0.61 ng/mL
concentration at 5 h [1, 8]: 1.36 ng/mL
concentration at 6 h [1, 8]: 0.74 ng/mL
concentration at 8 h [1, 8]: 0.49 ng/mL
concentration at 10 h [1, 8]: 0 ng/mL
concentration at 12 h [1, 8]: 0 ng/mL
concentration at 24 h [1, 8]: 0 ng/mL
AUC(0-inf) [1, 9]: 21.2 ng·h/mL
AUC(0-t) [1, 9]: 19.6 ng·h/mL
Cmax [1, 9]: 7.02 ng/mL
half-life [1, 9]: 2.18 h
Cmax, previously reported [2]: 4.2 ± 3.4 ng/mL
Tmax, previously reported [2]: 1.0 h
